Source: patent publication US5677459A, “Methods for the preparation of modulators of acetylcholine receptors” (Sibia Neurosciences, Inc., priority 1995, dated 1997)
Counter-ions that a name gives are not always drawn. Like-named read-outs stand apart in the source and are kept apart here.

What was measured:
[1] = system: ^3 H-Norepinephrine release, rat hippocampus slices; assay: Ligand-stimulated ^3 H-norepinephrine release from rat hippocampus slices; format: cell-based; conditions: for percent fractional release, ^3 H-Norepinephrine, Hippocampus: in vitro slices, 300 μM
Protocol: (§1) Measurement of ^3 H-dopamine release from rat striatal slices was performed according to the method of Sacaan et al. (J. Neurochem. 59:245 (1992)). Male Sprague-Dawley rats (250-300 g) were decapitated and the striata or olfactory tubercles dissected quickly on a cold glass surface. The tissue was chopped to a thickness of 300 μm with a McIlwain tissue chopper. After chopping again at right angles the tissue was dispersed and incubated for 10 min. at 37° C. in oxygenated Kreb's buffer. ^3 H-Dopamine (40 Ci/mmol, NEN- Dupont, Boston, Mass.) was added (50 nM) and the tissue was incubated for 30 min. in Kreb's buffer containing 10 μM pargyline and 0.5 mM ascorbic acid. Aliquots of the minced tissue were then transferred to chambers of a Brandel Superfusion system in which the tissue was supported on Whatman GF/B filter discs. The tissue was then superfused with buffer at a constant flow rate of 0.3 ml/min by means of a Brandel peristaltic pump. The perfusate was collected in plastic scintillation vials in 3-min fractions, and the radioactivity was estimated by scintillation spectrophotometry. The superfusate for the first 120 min was discarded. After two baseline fractions had been collected, the superfusion buffer was switched to fresh buffer with or without compound of interest. At the end of the experiment the filter and the tissue were removed, and the radiolabeled neurotransmitter content was estimated after extraction into scintillation fluid. The fractional efflux of radiolabeled neurotransmitter was estimated as the amount of radioactivity in the perfusate fraction relative to the total amount in the tissue.
(§2) Following essentially the same procedure as set forth above, the amount of ^3 H-norepinephrine released from rat hippocampus, thalamus and prefrontal cortex slices superfused with buffer containing (or lacking) compounds of interest was also measured.
(§3) Results of studies of the effects of an invention compound (as compared to the effect of nicotine) on the release of neurotransmitters from rat brain slices are presented in Table II. Results presented in Part A of the Table are expressed as the percent fractional release and results presented in Part B of the Table are expressed as a percentage, relative to nicotine response.

[2] = system: ^3 H-Norepinephrine release, rat thalamus slices; assay: Ligand-stimulated ^3 H-norepinephrine release from rat thalamus slices; format: cell-based; conditions: in vitro slices, 300 μM
Protocol: as §1, §2, §3

[3] = system: ^3 H-Dopamine release, rat olfactory tubercles; assay: Ligand-stimulated ^3 H-dopamine release from rat olfactory tubercles; format: cell-based; conditions: in vitro slices, 300 μM
Protocol: as §1, §3

[4] = system: ^3 H-Norepinephrine release, rat prefrontal cortex slices; assay: Ligand-stimulated ^3 H-norepinephrine release from rat prefrontal cortex slices; format: cell-based; conditions: in vitro slices, 300 μM
Protocol: as §1, §2, §3

rats = assay: Locomotor activity assay; format: in vivo, rat (male Sprague-Dawley); conditions: Rattus norvegicus, sc, 20 mg/kg, s.c.
Protocol: This assay can be used to assess the primary effect of a compound on general motor activity. A decrease in locomotor activity is indicative of a possible sedative effect on the animal, whereas an increase in locomotor activity is indicative of a stimulant effect on the animal.
Locomotor activity of rats (male Sprague-Dawley (Harlan) weighing 200-250 gm) was measured for 2 hrs in photocell cages immediately after administration of the invention compound. Prior to the test day, the animals were placed in the activity cages for 3 hrs to familiarize them with the experimental environment. On the test day, the animals were placed in the photocell cages and then injected with compound 1.5 hrs later.
The photocell cages were standard rodent cages (30 cm×20 cm×40 cm) with four infrared beams crossing the long axis. The animals were under no motivational constraints and were free to move around. Movements from one infrared beam to another (ambulation) were called "crossover"; successive interruptions of the same beam (vertical and other movements such as grooming) were called "general activity."

[5] = system: ^3 H-Dopamine release, rat striatal slices; assay: Ligand-stimulated ^3 H-dopamine release from rat striatal slices; format: cell-based; conditions: for percent fractional release, ^3 H-Dopamine, Striatum: in vitro slices, 300 μM
Protocol: as §1, §3

[6] = molecular target: T1, nicotinic acetylcholine receptor (Rattus norvegicus, UniProt P09483+P12390); assay: ^3 H-Nicotine binding/displacement, rat cerebral membranes; conditions: ^3 H-nicotine 1.9 nM, rat cerebral membranes; read-out: IC50, Nicotine
T1 construct: the brains removed and the cerebral cortex dissected on ice; from tissue; host or cells: cerebral cortex synaptic membranes of male Sprague-Dawley rats
Protocol: ^3 H-Nicotine binding to rat cerebral membranes was performed according to modifications of the method of Flyn and Mash (J. Neurochem. 47:1948 (1986)). ^3 H-Nicotine (80 ci/mmol; New England Nuclear Corporation, Boston, Mass.) was used as the ligand for nicotinic acetylcholine receptor binding assays. All other reagents were purchased from the Sigma Chemical Co. (St. Louis, Mo.).
Male Sprague-Dawley rats (250-400 gm) were sacrificed by decapitation, the brains removed and the cerebral cortex dissected on ice. Synaptic membranes were prepared by homogenizing the cortical tissue in 20 volumes of ice-cold modified Tris buffer (50 mM Tris pH 7.4, 120 mM NaCl, 5 mM KCl, 2 mM EDTA, 1 mM PMSF) with a polytron (20 sec at setting 5-6) followed by centrifugation (15 min at 5,000×g) at 4° C. The resultant pellet was rehomogenized and centrifuged twice. The final pellet was resuspended in ice-cold assay buffer (50 mM Tris pH 7.4, 120 mM NaCl, 5 mM KCl, 2 mM CaCl2, 1 mM MgCl2) at a concentration of membrane equivalent to 1 gm wet weight cortex per 10 ml buffer. After protein determination the final membrane preparation was diluted with buffer to 3 mg protein/mi. This membrane preparation was used in either the fresh state or frozen (-70° C.) then thawed.
The binding assay is performed manually using 96-well plates, or using a Biomek automated work station (Beckman Instrument Co.). ^3 H-Nicotine was diluted in assay buffer to give a final concentration of 1.9 nM. The Biomek automated work station was programmed to automatically transfer 750 μl of assay buffer with ^3 H-nicotine, 230 μl of membrane preparation and 20 μl of solution containing the compound of interest in assay buffer, DMSO, ethanol:DMSO (1:1) or appropriate vehicle to the 96-well plate. Atropine was added to the incubation buffer at a final concentration of 3 μM to block binding to muscarinic acetylcholine receptor sites. The plates were maintained on ice for 60 min and the tissue-bound radioactivity was separated from the free by rapid filtration in a Brandel Harvester onto GF/C filters presoaked in 0.5% polyethyleneimine for at least 2 hr. The filters were washed with 4×2 ml of ice-cold assay buffer and filters were transferred to vials to which 4 ml of scintillation cocktail was added. The radioactivity was measured in a LS-6500 Beckman Liquid Scintillation Counter in an autodpm mode. Data were analyzed bylog-logit transformation or non-linear regression analysis (e.g., employing GraphPad Prism, available from GraphPad Software, San Diego, Calif.) to give IC50 values. Non-specific binding was defined by 10 μM cytisine.

[7] = molecular target: muscarinic acetylcholine receptors; assay: ^3 H-QNB (quinuclidinyl benzilate) binding/displacement, rat cerebral membranes; conditions: ^3 H-QNB 60 pM, rat cerebral membranes
[8] = 1 h, 0-60 min, read-out: Ambulation (cross overs), percent of change from control
[9] = 1 h, 0-60 min, read-out: General Activity (beam breaks), percent of change from control
[10] = 2 h, 60-120 min, read-out: Ambulation (cross overs), percent of change from control
[11] = 2 h, 60-120 min, read-out: General Activity (beam breaks), percent of change from control

T1 sequence (P09483 31-630): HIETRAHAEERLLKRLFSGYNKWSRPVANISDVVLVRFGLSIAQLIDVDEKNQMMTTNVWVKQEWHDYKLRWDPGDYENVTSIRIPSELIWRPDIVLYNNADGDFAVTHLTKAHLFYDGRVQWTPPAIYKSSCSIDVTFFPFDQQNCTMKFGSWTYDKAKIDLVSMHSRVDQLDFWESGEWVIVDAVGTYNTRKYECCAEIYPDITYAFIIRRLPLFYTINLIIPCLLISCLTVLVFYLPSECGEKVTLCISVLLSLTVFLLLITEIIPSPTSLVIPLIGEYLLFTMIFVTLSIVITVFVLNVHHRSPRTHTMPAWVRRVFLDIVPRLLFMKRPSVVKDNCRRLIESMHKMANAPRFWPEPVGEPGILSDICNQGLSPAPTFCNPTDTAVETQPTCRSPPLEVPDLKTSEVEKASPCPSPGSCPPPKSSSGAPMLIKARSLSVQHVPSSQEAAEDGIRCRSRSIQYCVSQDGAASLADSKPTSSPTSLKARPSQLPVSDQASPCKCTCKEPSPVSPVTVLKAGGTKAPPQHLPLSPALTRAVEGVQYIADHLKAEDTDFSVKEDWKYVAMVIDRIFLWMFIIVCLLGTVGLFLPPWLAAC
T1 sequence (P12390 25-500): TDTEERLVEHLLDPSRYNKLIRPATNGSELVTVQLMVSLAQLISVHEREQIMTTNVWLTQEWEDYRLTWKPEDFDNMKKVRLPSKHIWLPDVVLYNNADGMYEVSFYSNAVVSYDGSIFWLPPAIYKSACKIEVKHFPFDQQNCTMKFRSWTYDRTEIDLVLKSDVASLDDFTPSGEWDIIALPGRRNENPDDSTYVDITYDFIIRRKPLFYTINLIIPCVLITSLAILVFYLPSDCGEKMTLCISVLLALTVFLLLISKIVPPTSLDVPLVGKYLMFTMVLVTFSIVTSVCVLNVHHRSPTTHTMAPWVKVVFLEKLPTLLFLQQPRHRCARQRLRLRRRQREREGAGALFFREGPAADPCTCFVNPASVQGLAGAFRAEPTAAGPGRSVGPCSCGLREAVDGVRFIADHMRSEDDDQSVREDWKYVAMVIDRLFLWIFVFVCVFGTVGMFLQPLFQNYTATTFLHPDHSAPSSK

Row | Compound | percent fractional release, ^3 H-Norepinephrine, Hippocampus [1] [%] | percent fractional release, ^3 H-Norepinephrine, Thalamus [2] [%] | percent fractional release, ^3 H-Dopamine, Olfactory Tubercles [3] [%] | percent fractional release, ^3 H-Norepinephrine, Prefrontal Cortex [4] [%] | change in vivo at 20 mg/kg (rats; [8]) [%] | change in vivo at 20 mg/kg (rats; [9]) [%] | change in vivo at 20 mg/kg (rats; [10]) [%] | change in vivo at 20 mg/kg (rats; [11]) [%] | percent fractional release, ^3 H-Dopamine, Striatum [5] [%] | IC50 [6] [µM] | IC50 [7] [µM] | Emax at 300 µM ([1]; Rattus norvegicus, nicotine 300 μM = 100, read-out: % of Nicotine Response, ^3 H-Norepinephrine, Hippocampus) [%] | Emax at 300 µM ([5]; Rattus norvegicus, compounds at 300 μM, nicotine 10 μM = 100, read-out: % of Nicotine Response, ^3 H-Dopamine, Striatum) [%]
1 | CN1CCCC1c1cncc(-c2ccc(F)cc2)c1.O=C(O)/C=C/C(=O)O (centres unmarked) [A = CH2; R^7 = CH3; R^5 = 4-fluorophenyl, 5-(4-Fluorophenyl)-3-(1-methyl-2-pyrrolidinyl) pyridine fumarate] | 0.58 | 0.9 | 2.68 | 1.23 | 21 | 95 | 14 | 173 | 1.96 |  |  |  | 
2 | CN1CCCC1c1cncc(-c2ccc(O)c(F)c2)c1.O=C(O)/C=C/C(=O)O (centres unmarked) [R^5 = 3-fluoro-4-hydroxyphenyl, 5-(4-hydroxy-3-fluorophenyl)-3-(1-methyl-2-pyrrolidinyl)pyridine fumarate] | 1.47 |  | 7.07 | 1.14 | 49 | 63 | -14 | 26 | 3.33 | 0.029 | 35 |  | 
3 | CN1CCCC1c1cncc(-c2ccc(-c3ccccc3)cc2)c1 (centres unmarked) [R^5 = 4-biphenyl, 5-(4-Biphenyl)-3-(1-methyl-2-pyrrolidinyl)pyridine fumarate] | 2.9 | 1.1 | 6.3 | 3.4 | -9 | -17 | 73 | 98 | 2.2 | 0.047 | 9.5 |  | 
4 | CN1CCCC1c1cncc(-c2ccc(O)cc2)c1.O=C(O)/C=C/C(=O)O (centres unmarked) [R^5 = 4-hydroxyphenyl, 5-(4-Hydroxyphenyl)-3-(1-methyl-2-pyrrolidinyl)pyridine fumarate] | 3.03 | 2.3 | 6.62 | 3.16 | 74 | 96 | 110 | 7 | 3.73 | 0.0054 | 19.1 |  | 
5 | Cc1ccc(-c2cncc(C3CCCN3C)c2)cc1.O=C(O)/C=C/C(=O)O (centres unmarked) [R^5 = 4-methylphenyl, 5-(4-Methylphenyl)-3-(1-methyl-2-pyrrolidinyl)pyridine fumarate] | 0.52 | 0.31 | 1.0 |  |  |  |  |  | 0.74 | 0.031 | 14 |  | 
6 | COc1ccc(-c2cncc(C3CCCN3C)c2)cc1.O=C(O)/C=C/C(=O)O (centres unmarked) [R^5 = 4-methyoxyphenyl, 5-(4-Methoxyphenyl)-3-(1-methyl-2-pyrrolidinyl)pyridine fumarate] | 0.99 | 0.52 | 4.0 | 1.04 | 58 | 83 | 31 | 22 | 2.1 | 0.018 | 37.7 |  | 
7 | C#Cc1cncc(C2CCCN2)c1 (centres unmarked) [R^7 = H; R^5 = 5-(1-ethynyl), 5-Ethynyl-3-(1-H-2-pyrrolidinyl)pyridine fumarate] |  |  |  |  |  |  |  |  |  | 0.058 | 8.9 | 13.4 | 61.7
